The target in test [1] is Gastrin/cholecystokinin type B receptor (Cavia porcellus). In words: Apparent affinity to inhibit binding of [3H]pCCK-8 to Cholecystokinin type B receptor of guinea pig brain membranes.
For test [2] the target is unchanged. The test is described as above. The source holds these as a separate data set.

Ki data for five compounds are collected here from BindingDB's records for doi:10.1021/jm00174a016 (University of Paris, 1991).

Where a SMILES comes first, the peptide text is derived from it. [ ]: non-standard residue; d: D form. The star is where a group is joined. sY = N[C@@H](Cc1ccc(OS(=O)(=O)O)cc1)C(=O)O; Nle = CCCC[C@H](N)C(=O)O; Orn = NCCC[C@H](N)C(=O)O; Cbz = O=C(OCc1ccccc1)*; Boc = CC(C)(C)OC(=O)*

Regarding `CC(C)(C)OC(=O)N[C@@H](Cc1c[nH]c2ccccc12)C(=O)N[C@@H](CCCN)C(=O)N[C@@H](CC(=O)O)C(=O)N[C@@H](Cc1ccccc1)C(N)=O` (Boc-W[Orn]DF-NH2), in test [1], the Ki came to 1400 nM. Consider `CC(C)(C)OC(=O)N[C@@H](Cc1c[nH]c2ccccc12)C(=O)N[C@@H](CCCNC(=O)OCc1ccccc1)C(=O)N[C@@H](CC(=O)O)C(N)=O` (Boc-Trp-[Orn](Cbz)-Asp-NH2), for which the Ki in test [2] was found to be 4200 nM. Still for that read-out and setting: in the case of `CCCC[C@H](NC(=O)[C@H](Cc1ccc(OS(=O)(=O)O)cc1)NC(=O)OC(C)(C)C)C(=O)NCC(=O)N[C@@H](Cc1c[nH]c2ccccc12)C(=O)N[C@@H](CCCNC(=O)OCc1ccccc1)C(=O)N[C@@H](CC(=O)O)C(N)=O` (Boc-[sY][Nle]GW[Orn](Cbz)D-NH2) it was 54 nM. As to `CC(C)(C)OC(=O)NCCC[C@H](NC(=O)[C@H](Cc1c[nH]c2ccccc12)NC(=O)OC(C)(C)C)C(=O)N[C@@H](CC(=O)O)C(N)=O` [3-{5-tert-Butoxycarbonylamino-2-[2-tert-butoxycarbonylamino-3-(1H-indol-3-yl)-propionylamino]-pentanoylamino}-succinamic acid] (Boc-Trp-[Orn](Boc)-Asp-NH2), the Ki in test [1] was 4300 nM. For the compound `CC(C)(C)OC(=O)N[C@@H](Cc1c[nH]c2ccccc12)C(=O)N[C@@H](CCCNC(=O)OCc1ccccc1)C(=O)N[C@@H](CC(=O)O)C(=O)N[C@@H](Cc1ccccc1)C(N)=O` (Boc-W[Orn](Cbz)DF-NH2), the Ki in test [2] is 580 nM.
